Drawing on patent publication US12441725B2, “ISO-citrate dehydrogenase (IDH) inhibitor” (ZHEJIANG METON PHARMACEUTICAL CO., LTD, priority 2019, dated 2025), this text covers IC50 for 12 molecules.

Bounds are passed on as bounds.

One assay deals with T1, IDH1 R132H (Homo sapiens, UniProt O75874, R132H).
T1 construct: 6xHis
The experiment in a line: Biochemical assay for IDH inhibition (NADPH fluorescence), mutant IDH1 R132H. The conditions noted are these: 50 nM IDH1-R132H, 1 hour pre-incubation, in triplet. The text has this: (§1) The present disclosure provides a biochemical assay method for detecting the IDH inhibition and selectivity of the compounds by detecting IDH enzyme activity directly.
(§2) Wild-type IDH enzymes convert NADP^+ to NADPH when catalyzing the α-KG producing reaction. Mutant IDH enzymes convert NADPH to NADP^+ when catalyzing the D-2-HG producing reaction. So, the activity of wild-type and mutant IDH1/2 could be measured by monitoring NADPH level change as NADPH is fluorescent (Excitation 340 nm, Emission 460 nm). By monitoring the change of NADPH level in the reaction, the enzyme activity could be determined rapidly and efficiently and IC50 of a compound could also be assayed.
(§3) The test compounds are prepared into 50 mM stock solutions in DMSO and stored at −20° C. Each test compound stock is further diluted to obtain a 100× stock solution at a concentration of 400 μM, 200 μM, 100 μM, 50 μM, 25 μM, 12.5 μM, 6.25 μM and 3.125 μM, respectively, for the final use on the day of test (the concentration range of 100× stock solutions might be adjusted to cover the estimated IC50 of a specific test compound).
(§4) Inhibition of Mutant IDH1 (R132H or R132C):
(§5) To assay the enzymatic activity of mutant IDH1 proteins, 25 nM IDH1-R132C or 50 nM IDH1-R132H protein solutions are prepared in 20 mM Tris-HCl pH7.5, 150 mM NaCl, 10 mM MgCl2, 1 mM DTT, 0.05 mg/ml BSA and 1.33 mM α-KG. 148 μL 25 nM IDH1-R132C or 50 nM IDH1-R132H protein solutions are mixed with 2 μL DMSO (vehicle control for test compounds) or an above-mentioned 100× stock solution of a test compound and incubated for 1 hour at room temperature. Extra reactions containing 148 μL no-enzyme solution (20 mM Tris-HCl pH7.5, 150 mM NaCl, 10 mM MgCl2, 1 mM DTT, 0.05 mg/ml BSA and 1.33 mM α-KG) and 2 μL DMSO are also set up as background controls. Then each reaction is initiated by adding 50 μL 80 μM NADPH solution prepared in 20 mM Tris-HCl pH7.5, 150 mM NaCl, 10 mM MgCl2, 1 mM DTT and 0.05 mg/ml BSA. BioTek Synergy H1 Microplate reader (BioTek Instruments Inc., Winooski, U.S.) is employed to monitor the NADPH fluorescence (Excitation 340 nm, Emission 460 nm) every 42 seconds for 15 minutes. NADPH change rate is determined according to the linear phase of the fluorescence-time curve and results from the background control reactions are used as background subtraction to calculate the net NADPH change rates of other reactions. The net NADPH change rates from the vehicle control reactions are used as 100% enzymatic activity and thus the relative enzymatic activity of reactions with test compounds added could be determined. Then a dose-response curve is drawn for each test compound and the corresponding IC50 is calculated. The IC50 value is used to evaluate the inhibition and selectivity of each test compound on the IDH enzymatic activity.
(§6) The IDH inhibition activity of the compounds were assessed according to Test 2 of the Biological Assay section. The test for mutant IDH1 R132H and IDH1 R132C inhibition of each compound was carried out in triplet. As used in Table 5, “A” refers to an inhibitory activity against IDH1 R132H or IDH1 R132C with an IC50<0.1 μM; “B” refers to an inhibitory activity against IDH1 R132H or IDH1 R132C with an IC50 from 0.1 μM to 0.5 μM; “C” refers to an inhibitory activity against IDH1 R132H or IDH1 R132C with an IC50 from 0.5 μM to 1 μM; “D” refers to an inhibitory activity against IDH1 R132H or IDH1 R132C with an IC50>1 μM.

The target in the next assay is T2, IDH1 R132C (Homo sapiens, UniProt O75874, R132C).
T2 construct: 6xHis
Kind of assay: Biochemical assay for IDH inhibition (NADPH fluorescence), mutant IDH1 R132C. The conditions noted are these: 25 nM IDH1-R132C, 1 hour pre-incubation, in triplet.
Excerpt: as §1, §2, §3, §4, §5, §6

For assay [1], the target named is T3, IDH (endogenous IDH1 R132C) in HT1080 cell (Homo sapiens, UniProt O75874, R132C).
T3 construct: which harbor endogenous heterozygous IDH1 R132C and R132H mutation respectively and accumulate D-2-HG
Kind of assay: Cell-based assay for IDH inhibition (decrease of D-2-HG) in HT1080 cells. The conditions noted are these: human fibrosarcoma cell line HT1080, 16 hours treatment, D-2-HG by LC-MS, in triplet. The text has this: The present disclosure also provides a cell-based method for assaying IDH inhibition and selectivity of the compounds in human fibrosarcoma cell line HT1080 and cholangiocarcinoma cell line HCCC 9810, which harbor endogenous heterozygous IDH1 R132C and R132H mutation respectively and accumulate D-2-HG. Tumor -derived IDH mutant lost its normal activity of producing α-KG, and gained a new activity of producing D-2-HG. D-2-HG is a metabolite specifically elevated in tumor cells expressing mutant IDH1 or IDH2 proteins. When treating such mutant IDH-expressing tumor cells with an effective IDH inhibitor, the synthesis of D-2-HG is blocked, and D-2-HG concentration is decreased by the oxidation reaction catalyzed by the endogenous D-2-HG dehydrogenase.
To perform a cell-based IDH inhibition assay, HT1080 and HCCC 9810 cells (or other cell lines harboring different IDH mutations) are cultured in DMEM supplemented with 10% FBS. The cells are treated with compounds of present disclosure at various different concentrations. 16 hours after the treatment, culture medium supernatants are removed and cell metabolites are extracted by 40% methanol and 40% acetonitrile in water (pre-chilled under −80° C.) at 4° C. for 1 hour. The extract supernatants are collected and cell debris are removed via high speed centrifugation. The resulting metabolite extracts are analyzed on an Agilent LC-MS system (model: 1290-6470) for 2-HG and glutamate concentration. A HILIC-Z column (2.1 mm×100 mm, […]) is employed on HPLC. Mobile phase A is 15 mM CH3COONH4 and 0.3% NH3·H2O in water. Mobile phase B is 15 mM CH3COONH4 and 0.3% NH3·H2O in 90% MeCN/10% H2O solvent. An 19% solvent A and 81% solvent B isocratic gradient method is used at a flow rate of 0.3 ml/min. D-2-HG is ionized under negative ion spray mode and detected through the multiple-reaction monitoring of a mass transition pair at m/z=147.0/128.9 and 147.0/85.1. Glutamate is ionized under ion spray mode and detected on negative polarity multiple-reaction monitoring of a mass transition pair at m/z=146/102 and 146/128 and its level is used to normalize 2-HG concentration. The activity of cellular mutant IDH proteins in the presence of each test compound at different concentrations can be represented by relative D-2-HG concentration to negative control samples (i.e., cells are treated with DMSO only), and the IC50 value could be determined to evaluate the inhibition and selectivity of each test compound on the IDH enzymatic activity.
The IDH inhibition activity of the compounds were assessed in human fibrosarcoma cell line HIT1080 according to Test 3 of the Biological Assay section. The test for IDH inhibition of each compound was carried out in triplet. As used in Table 6, “A” refers to an IDH inhibitory activity with an IC50<0.1 μM; “B” refers to an IDH inhibitory activity with an IC50 from 0.1 μM to 0.5 μM; “C” refers to an IDH inhibitory activity with an IC50 from 0.5 μM to 1 μM; “D” refers to an IDH inhibitory activity with an IC50>1 μM.

T1 sequence (O75874 whole entry R132H): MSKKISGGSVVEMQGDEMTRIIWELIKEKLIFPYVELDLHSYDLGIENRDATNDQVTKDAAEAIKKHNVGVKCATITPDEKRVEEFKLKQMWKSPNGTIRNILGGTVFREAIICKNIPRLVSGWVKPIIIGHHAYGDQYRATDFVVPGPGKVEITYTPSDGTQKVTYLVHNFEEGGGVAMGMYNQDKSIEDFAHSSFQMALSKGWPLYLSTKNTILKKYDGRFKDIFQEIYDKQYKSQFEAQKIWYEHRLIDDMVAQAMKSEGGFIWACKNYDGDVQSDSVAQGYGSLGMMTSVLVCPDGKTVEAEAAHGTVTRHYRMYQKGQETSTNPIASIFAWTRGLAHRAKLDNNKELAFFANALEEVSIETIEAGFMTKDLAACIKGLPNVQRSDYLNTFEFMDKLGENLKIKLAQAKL
T3 sequence (O75874 2-414 R132C): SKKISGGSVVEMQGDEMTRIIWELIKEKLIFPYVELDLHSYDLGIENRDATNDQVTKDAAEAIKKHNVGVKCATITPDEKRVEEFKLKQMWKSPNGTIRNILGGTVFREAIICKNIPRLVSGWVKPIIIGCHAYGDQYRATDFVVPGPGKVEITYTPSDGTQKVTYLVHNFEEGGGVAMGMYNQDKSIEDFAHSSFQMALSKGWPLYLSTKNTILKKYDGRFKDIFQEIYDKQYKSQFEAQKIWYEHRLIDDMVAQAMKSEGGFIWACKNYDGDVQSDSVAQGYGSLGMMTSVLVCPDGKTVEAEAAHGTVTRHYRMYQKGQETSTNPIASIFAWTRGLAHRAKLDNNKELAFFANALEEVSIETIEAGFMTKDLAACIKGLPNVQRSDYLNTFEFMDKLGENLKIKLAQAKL
T2 sequence (O75874 whole entry R132C): as the sequence (O75874 whole entry R132H) above, with H132C counted along it

On to `CCN1Cc2c(ccnc2N[C@@H](C)c2ccc(Oc3ccc4c(cnn4C)c3)c(F)c2)C1=O` [Compound 1, 2-ethyl-4-[[(1S)-1-[3-fluoro-4-(1-methylindazol-5-yl)oxy-phenyl]ethyl]amino]-3H-pyrrolo[3,4-c]pyridin-1-one], for which the IC50 (as a rule, the concentration needed to halve the response being measured) was in the range of 100 to 500 nM at IDH1 R132H, 100 to 500 nM at IDH1 R132C and 500 to 1000 nM in assay [1].
With `CCN1Cc2c(ccnc2N[C@@H](C)c2ccc(Oc3cccc4c3ccn4C)c(F)c2)C1=O` [Compound 2, (S)-2-ethyl-4-((1-(3-fluoro-4-((1-methyl-1H-indol-4-yl)oxy)phenyl)ethyl)amino)-2,3-dihydro-1H-pyrrolo[3,4-c]pyridin-1-one], the concentration for half-maximal inhibition (IC50) lay within 100 to 500 nM at IDH1 R132H, 100 to 500 nM on IDH1 R132C and 500 to 1000 nM in assay [1].
For `CCN1Cc2c(ccnc2N[C@@H](C)c2ccc(Oc3ccc4c(ccn4C)c3)c(F)c2)C1=O` [Compound 3, (S)-2-ethyl-4-((1-(3-fluoro-4-((1-methyl-1H-indol-5-yl)oxy)phenyl)ethyl)amino)-2,3-dihydro-1H-pyrrolo[3,4-c]pyridin-1-one], the IC50 at IDH1 R132H lay in the range of 100 to 500 nM; at IDH1 R132C it was 100 to 500 nM; in assay [1], 500 to 1000 nM.
For `CCN1Cc2c(ccnc2N[C@@H](C)c2ccc(Oc3cnn(C)c3)c(F)c2)C1=O` [Compound 4, (S)-2-ethyl-4-((1-(3-fluoro-4-((1-methyl-1H-pyrazol-4-yl)oxy)phenyl)ethyl)amino)-2,3-dihydro-1H-pyrrolo[3,4-c]pyridin-1-one], the IC50 (at IDH1 R132H; at IDH1 R132C; in assay [1]) was more than 1000 nM throughout.
With `CCN1Cc2c(ccnc2N[C@@H](C)c2ccc(OC3Cc4ccccc4C3)c(F)c2)C1=O` [Compound 5, (S)-4-((1-(4-((2,3-dihydro-1H-inden-2-yl)oxy)-3-fluorophenyl)ethyl)amino)-2-ethyl-2,3-dihydro-1H-pyrrolo[3,4-c]pyridin-1-one], the figures for the IC50 (at IDH1 R132H; on IDH1 R132C; in assay [1]) were 500 to 1000 nM, 500 to 1000 nM and more than 1000 nM, respectively.
For `CCN1Cc2c(ccnc2N[C@@H](C)c2ccc(OC3CCc4ccccc43)c(F)c2)C1=O` (stereo partly drawn) [Compound 6, 4-(((1S)-1-(4-((2,3-dihydro-1H-inden-1-yl)oxy)-3-fluorophenyl)ethyl)amino)-2-ethyl-2,3-dihydro-1H-pyrrolo[3,4-c]pyridin-1-one], the IC50 on IDH1 R132H was 500 to 1000 nM; at IDH1 R132C, more than 1000 nM; in assay [1] it was more than 1000 nM.
Take `CCN1Cc2c(ccnc2N[C@@H](C)c2ccc(Oc3ccc(C(C)(C)C)nc3)c(F)c2)C1=O` [Compound 7, (S)-4-((1-(4-((6-(tert-butyl)pyridin-3-yl)oxy)-3-fluorophenyl)ethyl)amino)-2-ethyl-2,3-dihydro-1H-pyrrolo[3,4-c]pyridin-1-one]: the IC50 on IDH1 R132H is 100 to 500 nM; on IDH1 R132C, more than 1000 nM; in assay [1], 500 to 1000 nM.
In the case of `CCN1Cc2c(ccnc2N[C@@H](C)c2ccc(Oc3ccc4c(c3)ncn4C)c(F)c2)C1=O` [Compound 8, (S)-2-ethyl-4-((1-(3-fluoro-4-((1-methyl-1H-benzo[d]imidazol-5-yl)oxy)phenyl)ethyl)amino)-2,3-dihydro-1H-pyrrolo[3,4-c]pyridin-1-one], the IC50 (at IDH1 R132H; on IDH1 R132C; in assay [1]) was more than 1000 nM in each case.
For `CCN1Cc2c(ccnc2N[C@@H](C)c2ccc(Oc3ccc4c(ccn4C(C)C)c3)c(F)c2)C1=O` [Compound 9, (S)-2-ethyl-4-((1-(3-fluoro-4-((1-isopropyl-1H-indol-5-yl)oxy)phenyl)ethyl)amino)-2,3-dihydro-1H-pyrrolo[3,4-c]pyridin-1-one], the IC50 (at IDH1 R132H; on IDH1 R132C; in assay [1]) was 100 to 500 nM each time.
Consider `CCN1Cc2c(ccnc2N[C@@H](C)c2ccc(Oc3ccc4c(ccn4CCO)c3)c(F)c2)C1=O` [Compound 10, (S)-2-ethyl-4-((1-(3-fluoro-4-((1-(2-hydroxyethyl)-1H-indol-5-yl)oxy)phenyl)ethyl)amino)-2,3-dihydro-1H-pyrrolo[3,4-c]pyridin-1-one], for which the IC50 on IDH1 R132H was 500 to 1000 nM; on IDH1 R132C it was more than 1000 nM; in assay [1], more than 1000 nM.
As to `CCN1Cc2c(ccnc2N[C@@H](C)c2ccc(Oc3ccc4c(c3)cc(C)n4C)c(F)c2)C1=O` [Compound 11, (S)-4-((1-(4-((1,2-dimethyl-1H-indol-5-yl)oxy)-3-fluorophenyl)ethyl)amino)-2-ethyl-2,3-dihydro-1H-pyrrolo[3,4-c]pyridin-1-one], the IC50 was 100 to 500 nM at IDH1 R132H, 100 to 500 nM on IDH1 R132C and more than 1000 nM in assay [1].
In the case of `CCN1Cc2c(ccnc2N[C@@H](C)c2ccc(Cc3ccnc(C(F)(F)F)c3)c(F)c2)C1=O` [Compound 53, (S)-2-ethyl-4-((1-(3-fluoro-4-((2-(trifluoromethyl)pyridin-4-yl)methyl)phenyl)ethyl)amino)-2,3-dihydro-1H-pyrrolo[3,4-c]pyridin-1-one], the IC50 on IDH1 R132H and at IDH1 R132C was more than 1000 nM in each case.
